Tests used:
Type in all cases: cell-based
[1] = tested on: Proteus mirabilis (PMI) isolates; assay: microbe, parasite or virus in culture
Summary of the method: (§1)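 Log-phase isolates were inoculated at a final 5.10^5 CFU/mL in cation-adjusted Mueller-Hinton broth and incubated 16-20 h at 35° C in ambient air. MIC was the lowest concentration preventing visible growth; for combinations, the antibacterial MIC was read at each compound concentration.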

[2] = tested on: Morganella morganii (MMO) isolates; assay: MIC of compounds alone and combined with antibacterials, broth microdilution (CLSI)
Summary of the method: as §1

[3] = tested on: Klebsiella oxytoca (KOX) isolates; assay: as above
Summary of the method: as §1

[4] = tested on: Enterobacter cloacae (ECL) isolates; assay: as above
Summary of the method: as §1

C=CC1=C(C(=O)O)N2C(=O)[C@@H](NC(=O)/C(=N\OCC(=O)O)c3csc(N)n3)[C@H]2SC1 [FIX, Cefixime]
128 µg/mL: MIC ([1]; strain PMI UFR121, genotype TEM-1, TEM-52) | MIC ([1]; strain PMI UFR123, genotype CTX-M-1) | MIC ATB in combination ([4]; ECL 190408, CLA @ 4 μg/mL)
1 µg/mL: MIC ([1]; strain PMI UFR122, genotype TEM-1, CTX-M-15) | MIC ATB in combination ([2]; MMO 200321, AF2 @ 8 μg/mL) | MIC ATB in combination ([2]; MMO 200321, AF3 @ 8 μg/mL) | MIC ATB in combination ([2]; MMO UFR144, AF2 @ 8 μg/mL) | MIC ATB in combination ([2]; MMO UFR242, AF3 @ 8 μg/mL) | MIC ATB in combination ([2]; MMO UFR245, AF2 @ 8 μg/mL) | MIC ATB in combination ([2]; MMO UFR246, AF2 @ 8 μg/mL) | MIC ([2]; strain MMO UFR240, genotype CTX-M-9)
32 µg/mL: MIC ATB in combination ([2]; MMO 200321, CLA @ 4 μg/mL) | MIC ATB in combination ([2]; MMO UFR144, CLA @ 4 μg/mL) | MIC ATB in combination ([2]; MMO UFR241, CLA @ 4 μg/mL) | MIC ATB in combination ([2]; MMO UFR243, CLA @ 4 μg/mL) | MIC ATB in combination ([2]; MMO UFR247, CLA @ 4 μg/mL) | MIC ([2]; strain MMO UFR245, genotype DHA-1) | MIC ([2]; strain MMO UFR246, genotype DHA-1) | MIC ATB in combination ([4]; ECL 260508, CLA @ 4 μg/mL)
1024 µg/mL: MIC ([1]; strain PMI UFR126, compound alone) | MIC ([1]; strain PMI UFR126, genotype TEM-2, PER-1) | MIC ([2]; strain MMO UFR242, genotype TEM-52)
0.5 µg/mL: MIC ATB in combination ([1]; PMI UFR128, CLA @ 4 μg/mL) | MIC ([1]; strain PMI UFR120, genotype TEM-1, SHV-11, CTX-M-14) | MIC ([1]; strain PMI UFR125, genotype CTX-M-71) | MIC ATB in combination ([2]; MMO UFR144, AF3 @ 8 μg/mL) | MIC ATB in combination ([2]; MMO UFR241, AF3 @ 8 μg/mL) | MIC ATB in combination ([2]; MMO UFR243, AF2 @ 8 μg/mL) | MIC ATB in combination ([2]; MMO UFR246, AF3 @ 8 μg/mL)
4 µg/mL: MIC ATB in combination ([1]; PMI UFR82, CLA @ 4 μg/mL) | MIC ([2]; strain MMO UFR244, genotype DHA-1) | MIC ATB in combination ([3]; KOX UFR21, AF3 @ 8 μg/mL) | MIC ATB in combination ([3]; KOX UFR173, CLA @ 4 μg/mL)
>128 µg/mL: MIC ([1]; strain PMI UFR124, genotype CTX-M-2) | MIC ([1]; strain PMI UFR127, compound alone) | MIC ([1]; strain PMI UFR127, genotype VEB-1) | MIC ([1]; strain PMI UFR128, genotype VEB-1, OXA-10) | MIC ([1]; strain PMI UFR129, genotype TEM-1, VEB-6) | MIC ([1]; strain PMI UFR131, genotype CMY-16, OXA-1, OXA-10, NDM-1, ArmA) | MIC ATB in combination ([1]; strain PMI UFR131, with CLA @ 4 μg/mL) | MIC ([1]; strain PMI UFR132, genotype VEB-6, DHA-1, NDM-1, AphA6, AacA4) | MIC ATB in combination ([1]; strain PMI UFR132, with CLA @ 4 μg/mL) | MIC ([1]; strain PMI UFR237, genotype VEB-6) | MIC ([2]; strain MMO 200321, genotype TEM-1, CTX-M-15, OXA-1) | MIC ([2]; strain MMO UFR144, genotype TEM-1, CTX-M-15) | MIC ATB in combination ([2]; strain MMO UFR145, with AF2 @ 8 μg/mL) | MIC ATB in combination ([2]; strain MMO UFR145, with AF3 @ 8 μg/mL) | MIC ATB in combination ([2]; strain MMO UFR145, with CLA @ 4 μg/mL) | MIC ([2]; strain MMO UFR241, genotype TEM-1, CTX-M-15) | MIC ([3]; strain KOX UFR21, genotype TEM-1, CTX-M-15, OXA-48) | MIC ([3]; strain KOX UFR224, genotype CTX-M-15, OXA-48) | MIC ATB in combination ([4]; ECL 2185D, AF2 @ 8 μg/mL) | MIC ATB in combination ([4]; ECL 2185D, AF3 @ 8 μg/mL) | MIC ATB in combination ([4]; ECL 2185D, CLA @ 4 μg/mL) | MIC ATB in combination ([4]; ECL 190310, AF2 @ 8 μg/mL) | MIC ATB in combination ([4]; ECL 190310, CLA @ 4 μg/mL) | MIC ATB in combination ([4]; ECL 200138, AF2 @ 8 μg/mL) | MIC ATB in combination ([4]; ECL 200138, AF3 @ 8 μg/mL) | MIC ATB in combination ([4]; ECL 200138, CLA @ 4 μg/mL) | MIC ATB in combination ([4]; ECL 260033, AF2 @ 8 μg/mL) | MIC ATB in combination ([4]; ECL 260033, AF3 @ 8 μg/mL) | MIC ATB in combination ([4]; ECL 260033, CLA @ 4 μg/mL) | MIC ATB in combination ([4]; ECL 260323, CLA @ 4 μg/mL) | MIC ATB in combination ([4]; ECL HAN, AF2 @ 8 μg/mL) | MIC ATB in combination ([4]; ECL HAN, AF3 @ 8 μg/mL) | MIC ATB in combination ([4]; ECL HAN, CLA @ 4 μg/mL)
<=0.125 μg/mL: MIC ([3]; strain KOX UFR223, genotype SHV-11, OXA-48)
2 µg/mL: MIC ATB in combination ([2]; MMO UFR241, AF2 @ 8 μg/mL) | MIC ATB in combination ([3]; KOX UFR21, AF2 @ 8 μg/mL)
16 µg/mL: MIC ([2]; strain MMO UFR247, genotype DHA-1) | MIC ([3]; strain KOX UFR173, genotype OXY2-2)
<0.25 µg/mL: MIC ATB in combination ([1]; PMI UFR82, AF2 @ 8 μg/mL) | MIC ATB in combination ([1]; PMI UFR82, AF3 @ 8 μg/mL) | MIC ATB in combination ([1]; PMI UFR126, AF2 @ 8 μg/mL) | MIC ATB in combination ([1]; PMI UFR126, AF3 @ 8 μg/mL) | MIC ATB in combination ([1]; PMI UFR127, AF2 @ 8 μg/mL) | MIC ATB in combination ([1]; PMI UFR127, AF3 @ 8 μg/mL) | MIC ATB in combination ([1]; PMI UFR128, AF2 @ 8 μg/mL) | MIC ATB in combination ([1]; PMI UFR128, AF3 @ 8 μg/mL) | MIC ATB in combination ([1]; PMI UFR129, AF2 @ 8 μg/mL) | MIC ATB in combination ([1]; PMI UFR129, AF3 @ 8 μg/mL) | MIC ATB in combination ([1]; PMI UFR130, AF2 @ 8 μg/mL) | MIC ATB in combination ([1]; PMI UFR130, AF3 @ 8 μg/mL) | MIC ATB in combination ([1]; PMI UFR133, AF2 @ 8 μg/mL) | MIC ATB in combination ([1]; PMI UFR133, AF3 @ 8 μg/mL) | MIC ATB in combination ([1]; PMI UFR237, AF2 @ 8 μg/mL) | MIC ATB in combination ([1]; PMI UFR237, AF3 @ 8 μg/mL) | MIC ATB in combination ([1]; strain PMI UFR131, with AF2 @ 8 μg/mL) | MIC ATB in combination ([1]; strain PMI UFR131, with AF3 @ 8 μg/mL) | MIC ATB in combination ([1]; strain PMI UFR132, with AF2 @ 8 μg/mL) | MIC ATB in combination ([1]; strain PMI UFR132, with AF3 @ 8 μg/mL) | MIC ATB in combination ([3]; KOX UFR223, AF2 @ 8 μg/mL) | MIC ATB in combination ([3]; KOX UFR223, AF3 @ 8 μg/mL) | MIC ATB in combination ([3]; KOX UFR224, AF2 @ 8 μg/mL) | MIC ATB in combination ([3]; KOX UFR224, AF3 @ 8 μg/mL) | MIC ATB in combination ([4]; ECL 190408, AF2 @ 8 μg/mL) | MIC ATB in combination ([4]; ECL 190408, AF3 @ 8 μg/mL) | MIC ATB in combination ([4]; ECL 200322, AF3 @ 8 μg/mL) | MIC ATB in combination ([4]; ECL 260253, AF2 @ 8 μg/mL) | MIC ATB in combination ([4]; ECL 260323, AF2 @ 8 μg/mL) | MIC ATB in combination ([4]; ECL 260323, AF3 @ 8 μg/mL) | MIC ATB in combination ([4]; ECL 260508, AF2 @ 8 μg/mL)
64 µg/mL: MIC ATB in combination ([2]; MMO UFR242, CLA @ 4 μg/mL) | MIC ATB in combination ([2]; MMO UFR245, CLA @ 4 μg/mL) | MIC ATB in combination ([2]; MMO UFR246, CLA @ 4 μg/mL) | MIC ATB in combination ([4]; ECL 190310, AF3 @ 8 μg/mL) | MIC ATB in combination ([4]; ECL 200322, CLA @ 4 μg/mL) | MIC ATB in combination ([4]; ECL 260253, CLA @ 4 μg/mL)
8 µg/mL: MIC ATB in combination ([1]; PMI UFR130, CLA @ 4 μg/mL) | MIC ([1]; strain PMI UFR82, genotype CMY-2) | MIC ([1]; strain PMI UFR130, genotype CMY-2) | MIC ATB in combination ([2]; MMO UFR240, CLA @ 4 μg/mL) | MIC ATB in combination ([2]; MMO UFR244, CLA @ 4 μg/mL) | MIC ([2]; strain MMO UFR243, genotype DHA-1) | MIC ATB in combination ([3]; KOX UFR224, CLA @ 4 μg/mL)
<=0.25 μg/mL: MIC ATB in combination ([1]; PMI UFR126, CLA @ 4 μg/mL) | MIC ATB in combination ([1]; PMI UFR127, CLA @ 4 μg/mL) | MIC ATB in combination ([1]; PMI UFR129, CLA @ 4 μg/mL) | MIC ATB in combination ([1]; PMI UFR133, CLA @ 4 μg/mL) | MIC ATB in combination ([1]; PMI UFR237, CLA @ 4 μg/mL) | MIC ([1]; strain PMI UFR133, genotype OXA-23) | MIC ATB in combination ([2]; MMO UFR240, AF2 @ 8 μg/mL) | MIC ATB in combination ([2]; MMO UFR240, AF3 @ 8 μg/mL) | MIC ATB in combination ([2]; MMO UFR242, AF2 @ 8 μg/mL) | MIC ATB in combination ([2]; MMO UFR243, AF3 @ 8 μg/mL) | MIC ATB in combination ([2]; MMO UFR244, AF2 @ 8 μg/mL) | MIC ATB in combination ([2]; MMO UFR244, AF3 @ 8 μg/mL) | MIC ATB in combination ([2]; MMO UFR245, AF3 @ 8 μg/mL) | MIC ATB in combination ([2]; MMO UFR247, AF2 @ 8 μg/mL) | MIC ATB in combination ([2]; MMO UFR247, AF3 @ 8 μg/mL) | MIC ATB in combination ([3]; KOX UFR173, AF2 @ 8 μg/mL) | MIC ATB in combination ([3]; KOX UFR173, AF3 @ 8 μg/mL) | MIC ATB in combination ([3]; KOX UFR223, CLA @ 4 μg/mL) | MIC ATB in combination ([4]; ECL 200322, AF2 @ 8 μg/mL) | MIC ATB in combination ([4]; ECL 260253, AF3 @ 8 μg/mL) | MIC ATB in combination ([4]; ECL 260508, AF3 @ 8 μg/mL)
